Source: patent US20250354117A1, “METHODS OF GENERATING NATURAL KILLER CELLS FROM PLURIPOTENT STEM CELLS AND COMPOSITIONS THEREOF” (THE CHILDREN'S MEDICAL CENTER CORPORATION, priority 2022, published 2025)
“Also recorded” adds a separate entry of the source.

Columns and labels:
[1] = system: CD34+ umbilical cord blood HSPCs; assay: UNC0642 treatment during T cell differentiation, flow cytometry; assay type: cell-based, human; details: continuous treatment 10, 50, 100, 500 nM; 28 days of differentiation; vs DMSO control
Excerpt: Error bars represent the standard deviation across n=3 independent differentiations per dose of UNC0642. *=p<0.05 compared to the DMSO control using a two-tailed Wilcoxon sum-rank test.
Error bars represent standard deviation. N=3 independent differentiation replicates per dose of UNC0642.
CD34+ umbilical cord blood cells (AllCells) were thawed from liquid nitrogen storage and T cell differentiation was immediately initiated with a StemSpan T cell Generation Kit (Stem Cell Technologies, 09940), as described above. Cells were treated with UNC0642 (Cayman Chemical, 14604) over the entire duration of the differentiation and fresh compound was supplemented every 3-4 days to the media. A range of doses were tested (10 nM, 50 nM, 100 nM, and 500 nM) alongside a 0.5% DMSO vehicle control with n=3 replicate differentiations per condition. Cells were collected after 28 days of differentiation to assess NK and T cell populations by flow cytometry.

[2] = system: CD34+ umbilical cord blood HSPCs; assay: In vitro T cell differentiation (Notch-based, stroma-free) of CRISPR/Cas9 RNP-edited HSPCs, flow cytometry; set-up: species or system human; details: six weeks of in vitro differentiation, Cas9 RNP knockout of EHMT1, n=3; for CD56+CD3− natural killer (NK) cells (fractional abundance within CD45+DAPI− population): AAVS1-targeting gRNA control: 1.2±0.45%; for CD56−CD3+ T cells (fractional abundance within CD45+DAPI− population): AAVS1-targeting gRNA control: 38.7±12.5%
Experimental: Genetic knockouts of select genes were generated in primary hematopoietic stem and progenitor cells (HSPCs) via nucleofection of CRISPR/Cas9 ribonucleoproteins (RNPs). Two independent knockouts were generated for each gene using separate gRNAs and knockouts were replicated across two different donor pools of human umbilical cord blood. First, CD34+ cord blood cells (AllCells) were thawed via dropwise addition of RPMI 1640+10% FBS. Cells were centrifuged at 200 g for 8 minutes and subsequently washed with FACS buffer (PBS+2% FBS). Cells were cultured for 48 hours prior to nucleofection at a density of 250,000 cells/mL in SFEM II™ media (StemCell Technologies) supplemented with 100 ng/mL SCF, TPO, FLT3L, and IL-6 (Peprotech) within a 5% O2, 5% CO2, 37° C. incubator. Next, the top two protospacer sequences for each desired gene were selected from the Brunello genome-wide knockout library (Broad Institute) based on the Rule Set 2 score. A control gRNA targeting the AAVS1 locus was designed in Benchling™. All gRNA sequences were synthesized by IDT as an Alt-R CRISPR/Cas9 sgRNA. RNPs were complexed by incubating 105 pmol of Cas9 protein (IDT) with 125 pmol of sgRNA in a 5 uL total volume for 10 minutes at room temperature. CD34+ cord blood HSPCs were washed with FACS buffer and 125,000 cells were resuspended in 20 μL of P3 Primary Cell Nucleofection Solution (Lonza) per nucleofection. RNPs were nucleofected into HSPCs with 3.85 uM electroporation enhancer (IDT) using a 16-reaction nucleovette on a Lonza 4D-Nucleofector (program DZ-100). Cells were cultured for 36-48 hours at 5% O2, 5% CO2 in 96-well U-bottom plates (Corning) then subsequently harvested for genomic DNA extraction and initiation of in vitro differentiation assays.
Following 36-48 hours post-nucleofection of Cas9 RNPs, 5,000 cord blood HSPCs were differentiated to T cell lineages using the StemSpan™ T cell Generation Kit (Stem Cell Technologies) per the manufacturer's instructions with n=3 replicate differentiations per gRNA. Total viable cell counts were performed on Day 14, 28 and 42 of differentiation. T cell development was assessed by flow cytometry on days 14 and 42 of differentiation to assess lymphoid progenitors (CD45, CD5 and CD7) and mature T cells (CD45, CD4, CD8, CD3, CD56, CD5 and CD7), respectively. Cells were stained with propidium iodide as a viability marker and the following antibodies for flow cytometry: CD45 APC-Cy7 (557833, BD Biosciences), CD4 PE-Cy5 (IM2636U, Beckman Coulter Immunotech), CD8-BV421 (RPA-T8, BD Horizon), CD5-BV510 (UCHT2, BD Biosciences), CD3-PE-Cy7 (UCHT1, BD Pharmigen), CD7-PE (555361, BD Pharmigen), CD56 FITC (BD Pharmigen). […]

[3] = system: FKBP12^F36V tagged TRIM28; assay: Western-blot for TRIM28 on dTAG knockin iPS clones; assay type: cell-based, human; details: 500 nM, 24 hours, four iPS clones, vs DMSO
Experimental: FIG. 35A-35F examines rapid and selective degradation of endogenous TRIM28 in human iPS cells. […] An mNeon-FKBP12^F36V open reading frame DNA sequence was knocked into the TRIM28 locus (SEQ ID NO: 32) to tag the N-terminus of TRIM28 and thus create an mNeon-FKBP12^F36V-TRIM28 fusion protein. The knockin was achieved through CRISPR/Cas9-mediated HDR (gRNA, SEQ ID: 31) where the knockin cassette was delivered to cells in an rAAV6 vector. FIG. 35B examines bulk knockin efficiency was assessed with flow cytometry for mNeon five days after simultaneous CRISPR/Cas9 RNP nucleofection and rAAV6 infection of iPS cells (MOI: 50,000 viral genomes/cells). […] The wild-type, unedited locus results in an amplicon of 1,204 bp and the knockin locus generates an amplicon of 2,371 bp. (*) denotes biallelic knockin clones. FIG. 35D analyzes microscopy for DAPI and mNeon on a biallelic knockin iPS clone to visualize nuclear localization of mNeon signal, consistent with the known nuclear localization of endogenous TRIM28 proteins. FIG. 35E examines titration of degrader molecules (dTAG-13 and dTAG^V-1) on a biallelic knockin iPS clone, assayed by flow cytometry for mNeon as a quantitative proxy for TRIM28 protein expression.

| Compound | proportion of CD56+CD3− NK cells and CD56−CD3+ T cells [1] | CD56+CD3− natural killer (NK) cells (fractional abundance within CD45+DAPI− population) [2] [%] | CD56−CD3+ T cells (fractional abundance within CD45+DAPI− population) [2] [%] | TRIM28 protein degradation [3] |
| --- | --- | --- | --- | --- |
| COc1cc2c(NC3CCN(C(C)C)CC3)nc(N3CCC(F)(F)CC3)nc2cc1OCCCN1CCCC1 [UNC0642] | dose-dependent acquisition of NK cells; also recorded: dose-dependent phenocopy of the EHMT1 CRISPR/Cas9 knockout | – | – | – |
| EHMT1 gRNA01: SEQ ID NO: 5, GGGCCGGTGCACAAACAGCG; Alt-R CRISPR/Cas9 sgRNA delivered as Cas9 RNP (guide GGGCCGGUGCACAAACAGCG; IDT Alt-R synthetic sgRNA, modifications not given here) | – | 35.4±5.7 | 13.9±1.8 | – |
| CC[C@H](C(=O)N1CCCC[C@H]1C(=O)O[C@H](CCc1ccc(OC)c(OC)c1)c1ccccc1OCC(=O)NCCCCCCC(=O)N[C@H](C(=O)N1C[C@H](O)C[C@H]1C(=O)N[C@@H](C)c1ccc(-c2scnc2C)cc1)C(C)(C)C)c1cc(OC)c(OC)c(OC)c1 [dTAG^V-1] | – | – | – | near-complete degradation |
| EHMT1 gRNA02: SEQ ID NO: 6, TTCGGCTGCTTCCATCAACG; Alt-R CRISPR/Cas9 sgRNA delivered as Cas9 RNP (guide UUCGGCUGCUUCCAUCAACG; IDT Alt-R synthetic sgRNA, modifications not given here) | – | 58.7±4.9 | 6.6±0.69 | – |
